As usually defined, the IC50 is the concentration at which inhibition is half-maximal. Read a high IC50 as weaker potency in that assay. One may read the T/C as the ratio of treated to control.

Test [1] concerns P388. In words: In vitro cytotoxicity against doxorubicin resistant P388 cell lines. The test is classed as functional, cell-based. The conditions noted are these: Mus musculus.
The subject of the next test is HT-29. In words: Cytotoxicity against human colon HT-29 cell lines. It is filed as functional, cell-based.
A further test has as its system A549. Description: Cytotoxicity against human A549 non small cell lung cell lines. It is filed as functional, cell-based.
In test [2] the test system is MCF7. In words: Cytotoxicity against human breast MCF-7 cancer cell lines. It is filed as functional, cell-based.
Another test has as its system A121. In words: Cytotoxicity against human A121 ovarian cells. It is filed as functional, cell-based.
For test [3], the species on record is Mus musculus. Description: Cell kill against B16 melanoma cell lines at a concentration of 0.4 mL per mouse on days 5,7,9 in B6D2F1 mice. The test is classed as functional.
Test [4] relates to Mus musculus. In words: In vivo antitumor activity administered iv, at a concentration of 20 mg/kg/day per mouse was determined against B16 melanoma cell lines on days 5,7,9 in B6D2F1 mice. The test is classed as functional.
For test [5], the system named is MCF7. In words: Cytotoxicity against adriamycin resistant human breast MCF-7 cancer cell lines. It is filed as functional, cell-based.
In test [6] the test system is P388. Description: In vitro cytotoxicity against murine P388 cell lines. It is filed as functional, cell-based. As to conditions: Mus musculus.
The species entered for test [7] is Mus musculus. In words: Time for median tumor to reach 1000 mg was determined against B16 melanoma cell lines at a concentration of 0.4 mL per mouse on days 5,7,9 in B6D2F1 mice. The test is classed as functional.
In test [8] the test system is P388. Description: Microtubule disassembly inhibitory activity against murine P388 cell line relative to the activity of paclitaxel. It is filed as functional, Mus musculus.
Test [9] relates to Mus musculus. In words: In vivo antitumor activity administered iv, at a concentration of 12.4 mg/kg/day per mouse was determined against B16 melanoma cell lines on days 5,7,9 in B6D2F1 mice. The test is classed as functional.

Regarding `CC(=O)O[C@@]12CO[C@@H]1C[C@H](O)[C@@]1(C)C(=O)[C@H](O)C3=C(C)[C@@H](OC(=O)[C@H](O)[C@H](CC(C)C)NC(=O)OC(C)(C)C)C[C@@](O)([C@@H](OC(=O)c4ccccc4)C12)C3(C)C` (stereo partly specified), the IC50 amounted to 1590 nM with P388 [1]; 0.63 nM with HT-29; 0.7 nM in the test with A549; 0.55 nM in the test on MCF7 [2]; 1.9 nM with A121; 12 nM in the test with MCF7 [5]. For the same molecule, 12.2 nM corresponded to half-maximal inhibition with P388 [6] (IC50). In the test listed under Mus musculus [3], this molecule had a Log cell kill of 1.97. The T/C in the test with Mus musculus [4] was determined as 5%. In the test filed under Mus musculus [7], this molecule yielded a Median tumor of 26.03 days. For the same molecule, the Ratio with P388 [8] is listed as 0.78.
Consider `CC(=O)O[C@H]1C(=O)[C@@]2(C)C([C@H](OC(=O)c3ccccc3)[C@]3(O)C[C@H](OC(=O)[C@H](O)[C@H](CC(C)C)NC(=O)OC(C)(C)C)C(C)=C1C3(C)C)[C@]1(OC(C)=O)CO[C@@H]1C[C@@H]2O` (stereo partly specified), for which the IC50 was 3.2 nM in the test with HT-29; 0.98 nM in the test with A549; 4 nM in the test on MCF7 [2]; 3.8 nM with A121; 36 nM in the test with MCF7 [5].
In the same order, the values of `C/C=C/[C@H](NC(=O)OC(C)(C)C)[C@@H](O)C(=O)O[C@H]1C[C@@]2(O)[C@@H](OC(=O)c3ccccc3)C3[C@](C)(C(=O)[C@H](OC(C)=O)C(=C1C)C2(C)C)[C@@H](O)C[C@H]1OC[C@@]31OC(C)=O` (stereo partly specified) are 0.76 nM, 0.54 nM, 0.51 nM, 0.9 nM and 14 nM.
`CC(=O)O[C@@]12CO[C@@H]1C[C@H](O)[C@@]1(C)C(=O)[C@H](O)C3=C(C)[C@@H](OC(=O)[C@H](O)[C@@H](NC(=O)OC(C)(C)C)c4ccccc4)C[C@@](O)([C@@H](OC(=O)c4ccccc4)[C@H]21)C3(C)C.O.O.O` [DOCETAXEL]: the concentration for half-maximal inhibition (IC50) with P388 [1] was 1860 nM; in the test on P388 [6], 9.9 nM. In addition, in the test on P388 [8], the Ratio is on record as 0.7.
Take `CC(=O)O[C@@]12CO[C@@H]1C[C@H](O)[C@@]1(C)C(=O)[C@H](O)C3=C(C)[C@@H](OC(=O)[C@H](O)[C@H](C=C(C)C)NC(=O)OC(C)(C)C)C[C@@](O)([C@@H](OC(=O)c4ccccc4)C12)C3(C)C` (stereo partly specified): the IC50 in the test with P388 [1] stood at 2360 nM; in the test with P388 [6], 12.8 nM. Besides, the T/C with Mus musculus [9] was determined as 8%. In addition, the Log cell kill in the test listed under Mus musculus [3] was 2.25. The same molecule came in with a Median tumor in the test listed under Mus musculus [7] of 27.54 days. In addition, the Ratio in the test with P388 [8] is given as 0.64.
Regarding `CC(=O)O[C@H]1C(=O)[C@@]2(C)C([C@H](OC(=O)c3ccccc3)[C@]3(O)C[C@H](OC(=O)[C@H](O)[C@H](C=C(C)C)NC(=O)c4ccccc4)C(C)=C1C3(C)C)[C@]1(OC(C)=O)CO[C@@H]1C[C@@H]2O` (stereo partly specified), the IC50 is 0.96 nM in the test with HT-29; 0.45 nM with A549; 0.54 nM in the test with MCF7 [2]; 1.4 nM in the test with A121; 113 nM in the test on MCF7 [5].
`CC(=O)O[C@@]12CO[C@@H]1C[C@H](O)[C@@]1(C)C(=O)[C@H](O)C3=C(C)[C@@H](OC(=O)[C@H](O)[C@H](/C=C/c4ccccc4)NC(=O)OC(C)(C)C)C[C@@](O)([C@@H](OC(=O)c4ccccc4)C12)C3(C)C` (stereo partly specified): the IC50 in the test with P388 [1] was determined as 7490 nM; in the test with P388 [6] it was 264 nM. Further, the Ratio with P388 [8] was determined as 1.45.
The corresponding values for `CC(=O)O[C@@]12CO[C@@H]1C[C@H](O)[C@@]1(C)C(=O)[C@H](O)C3=C(C)[C@@H](OC(=O)[C@H](O)[C@H](CC(C)(C)C)NC(=O)OC(C)(C)C)C[C@@](O)([C@@H](OC(=O)c4ccccc4)C12)C3(C)C` (stereo partly specified) are 6880 nM, 125 nM and 1.45.

The values above are taken from ChEMBL document CHEMBL1151062, “Synthesis and biological activity of 3-alkyl- and 3-alkenyl-3-dephenyldocetaxels” (Bioorg Med Chem Lett, 1994).
